Data taken from patent publication US9376420B2 (YUHAN CORPORATION, priority 2012, dated 2016).

Target: T1, human LXRβ (Homo sapiens, UniProt P55055)
T1 construct: expressed in transfected cells; host or cells: HEK293 cells (ATCC CRL-1573), transient transfection with pFA-hLXRβ/GAL4 and pUAS
T1 sequence (P55055 222-460 limits assumed): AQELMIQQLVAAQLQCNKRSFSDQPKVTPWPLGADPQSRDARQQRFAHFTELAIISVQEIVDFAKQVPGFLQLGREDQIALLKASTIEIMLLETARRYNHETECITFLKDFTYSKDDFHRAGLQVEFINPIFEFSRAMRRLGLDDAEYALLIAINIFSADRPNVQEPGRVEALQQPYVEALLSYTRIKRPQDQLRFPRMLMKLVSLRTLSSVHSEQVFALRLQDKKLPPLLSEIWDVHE
Assay: Assay for Transcriptional Activity of LXRβ (GAL4-hLXRβ LBD luciferase reporter, transient transfection)
Type: cell-based
Settings: HEK293 cells transfected with pFA-hLXRβ/GAL4 and pUAS, 24 hours; for Emax: fold value in comparison with the control (DMSO-treated group); for EC50: increase of transcriptional activity of LXRβ, average of three independent tests
Procedure, shortened: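 EC50 values, averaged over three independent runs, come from a four-parameter fit of 9-point half-log curves spanning 0.01–50 μM. Luciferase output was read in lysed HEK293 cells 24 h after dosing at 37 °C, following transient transfection with a GAL4-human LXRβ LBD fusion plus GAL4-responsive reporter.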

Structure (SMILES)	Emax [fold]	EC50 [nM]
CCOc1cccc(-c2ccc(C3CC(C(O)(C(F)(F)F)C(F)(F)F)=NN3c3ccccc3Cl)c(F)c2)c1 (centres unmarked) [Example 339, 1-(2-chloro-phenyl)-5-(3′-ethoxy-3-fluoro-biphenyl-4-yl)-3-[di-(trifluoromethyl)-hydroxy-methyl]-4,5-dihydro-1H-pyrazole]	71	1110
CC(=O)c1ccccc1-c1ccc(C2CC(C(O)(C(F)(F)F)C(F)(F)F)=NN2c2ccccc2Cl)cn1 (centres unmarked) [Example 348, 5-[6-(2-acetyl-phenyl)-pyridin-3-yl]-1-(2-chloro-phenyl)-3-[di-(trifluoromethyl)-hydroxy-methyl]-4,5-dihydro-1H-pyrazole]	45	991
CS(=O)(=O)c1ccc(-c2cccc(C3CC(C(F)(F)C(F)(F)F)=NN3c3ccc(F)cc3F)c2)nc1 (centres unmarked) [Example 81, 1-(2,4-difluoro-phenyl)-5-[3-(5-methanesulfonyl-pyridin-2-yl)-phenyl]-3-pentafluoroethyl-4,5-dihydro-1H-pyrazole]	78	1400
CS(=O)(=O)N1CC=C(c2ccc(F)c(C3CC(C(F)(F)C(F)(F)F)=NN3c3ccc(F)cc3F)c2)CC1 (centres unmarked) [Example 149, 1-(2,4-difluoro-phenyl)-5-[2-fluoro-5-(1-methanesulfonyl-1,2,3,6-tetrahydropyridin-4-yl)-phenyl]-3-pentafluoroethyl-4,5-dihydro-1H-pyrazole]	124	303
CC(C)S(=O)(=O)N1CC=C(c2ccc(C3CC(C(O)(C(F)(F)F)C(F)(F)F)=NN3c3ccccc3Cl)cc2)CC1 (centres unmarked) [Example 301, 1-(2-chloro-phenyl)-5-{4-[1-(propane-2-sulfonyl)-1,2,3,6-tetrahydropyridin-4-yl]-phenyl}-3-[di-(trifluoromethyl)-hydroxy-methyl]-4,5-dihydro-1H-pyrazole]	73	479
O=C(O)C(F)(F)F.OC(C1=NN(c2ccccc2Cl)C(c2cccc(C3=CCNCC3)c2)C1)(C(F)(F)F)C(F)(F)F (centres unmarked) [Example 230, 1-(2-chloro-phenyl)-5-[3-(1,2,3,6-tetrahydropyridin-4-yl)-phenyl]-3-[di-(trifluoromethyl)-hydroxy-methyl]-4,5-dihydro-1H-pyrazole trifluoroacetate]	137	36
O=S(=O)(C1CC1)N1CC=C(c2ccc(C3CC(C(O)(C(F)(F)F)C(F)(F)F)=NN3c3ccccc3Cl)cc2)CC1 (centres unmarked) [Example 304, 1-(2-chloro-phenyl)-5-[4-(1-cyclopropanesulfonyl-1,2,3,6-tetrahydropyridin-4-yl)-phenyl]-3-[di-(trifluoromethyl)-hydroxy-methyl]-4,5-dihydro-1H-pyrazole]	104	521
COc1ncc(-c2ccc(C3CC(C(O)(C(F)(F)F)C(F)(F)F)=NN3c3ccccc3Cl)cc2)cn1 (centres unmarked) [Example 279, 1-(2-chloro-phenyl)-5-[4-(2-methoxy-pyrimidin-5-yl)-phenyl]-3-[di-(trifluoromethyl)-hydroxy-methyl]-4,5-dihydro-1H-pyrazole]	67	931
O=S(=O)(C1CC1)N1CC=C(c2cncc(C3CC(C(F)(F)C(F)(F)F)=NN3c3ccc(F)cc3F)c2)CC1 (centres unmarked) [Example 168, 1-(2,4-difluoro-phenyl)-5-[3-(1-cyclopropanesulfonyl-1,2,3,6-tetrahydropyridin-4-yl)-pyridin-5-yl]-3-pentafluoroethyl-4,5-dihydro-1H-pyrazole]	30	6120
Fc1cncc(-c2cccc(C3CC(C(F)(F)C(F)(F)F)=NN3c3ccc(F)cc3F)c2)c1 (centres unmarked) [Example 74, 1-(2,4-difluoro-phenyl)-5-(3-(5-fluoro-pyridin-3-yl)-phenyl)-3-pentafluoroethyl-4,5-dihydro-1H-pyrazole]	29	2960
COc1ccc(-c2ccc(C3CC(C(O)(C(F)(F)F)C(F)(F)F)=NN3c3ccccc3Cl)cc2F)cn1 (centres unmarked) [Example 368, 1-(2-chloro-phenyl)-5-[3-fluoro-4-(6-methoxy-pyridin-3-yl)-phenyl]-3-[di-(trifluoromethyl)-hydroxy-methyl]-4,5-dihydro-1H-pyrazole]	57	1920
CC(O)c1ccc(-c2cccc(C3CC(C(F)(F)C(F)(F)F)=NN3c3ccccc3Cl)c2)cc1 (centres unmarked) [Example 108, 1-(2-chloro-phenyl)-5-[4′-(1-hydroxy-ethyl)-biphenyl-3-yl]-3-pentafluoroethyl-4,5-dihydro-1H-pyrazole]	44	993
Cc1ncccc1-c1cccc(C2CC(C(F)(F)C(F)(F)F)=NN2c2ccc(F)cc2F)c1 (centres unmarked) [Example 71, 1-(2,4-difluoro-phenyl)-5-(3-(2-methyl-pyridin-3-yl)-phenyl)-3-pentafluoroethyl-4,5-dihydro-1H-pyrazole]	20	1230
COc1cccc(-c2ccc(C3CC(C(O)(C(F)(F)F)C(F)(F)F)=NN3c3ccccc3Cl)cn2)c1 (centres unmarked) [Example 349, 1-(2-chloro-phenyl)-5-[6-(3-methoxy-phenyl)-pyridin-3-yl]-3-[di-(trifluoromethyl)-hydroxy-methyl]-4,5-dihydro-1H-pyrazole]	60	772
CSc1ccc(-c2cccc(C3CC(C(F)(F)C(F)(F)F)=NN3c3ccccc3Cl)c2)cc1 (centres unmarked) [Example 105, 1-(2-chloro-phenyl)-5-(4′-methylsulfanyl-biphenyl-3-yl)-3-pentafluoroethyl-4,5-dihydro-1H-pyrazole]	55	6310
Fc1ccc(N2N=C(C(F)(F)C(F)(F)F)CC2c2cccc(-c3ccccc3)c2)c(F)c1 (centres unmarked) [Example 94, 5-biphenyl-3-yl-1-(2,4-difluoro-phenyl)-3-pentafluoroethyl-4,5-dihydro-1H-pyrazole]	27	19000
CS(=O)(=O)c1cc(F)c(-c2ccc(C3CC(C(O)(C(F)(F)F)C(F)(F)F)=NN3c3ccccc3Cl)cc2)c(F)c1 (centres unmarked) [Example 288, 1-(2-chloro-phenyl)-5-[2′,6′-difluoro-4′-(methylsulfonyl)-biphenyl-4-yl]-3-[di-(trifluoromethyl)-hydroxy-methyl]-4,5-dihydro-1H-pyrazole]	40	727

More lines, now with the values ahead:

Emax [fold]	EC50 [nM]	Structure (SMILES)
25	60	CS(=O)(=O)c1c(F)cc(-c2ccc(C3CC(C(O)(C(F)(F)F)C(F)(F)F)=NN3c3ccc(F)cc3F)cc2)cc1F (centres unmarked) [Example 388, 1-(2,4-difluoro-phenyl)-5-(3′,5′-difluoro-4′-methanesulfonyl-biphenyl-4-yl)-3-[di-(trifluoromethyl)-hydroxy-methyl]-4,5-dihydro-1H-pyrazole]
28	666	CSc1cccc(-c2ccc(C3CC(C(O)(C(F)(F)F)C(F)(F)F)=NN3c3ccc(F)cc3F)cc2)c1 (centres unmarked) [Example 369, 1-(2,4-difluoro-phenyl)-5-(3′-methylsulfanyl-biphenyl-4-yl)-3-[di-(trifluoromethyl)-hydroxy-methyl]-4,5-dihydro-1H-pyrazole]
45	785	CN(C)S(=O)(=O)N1CC=C(c2ccc(C3CC(C(O)(C(F)(F)F)C(F)(F)F)=NN3c3ccc(F)cc3F)cc2)CC1 (centres unmarked) [Example 401, 1-(2,4-difluoro-phenyl)-5-[4-(1-dimethylsulfamoyl-1,2,3,6-tetrahydropyridin-4-yl)-phenyl]-3-[di-(trifluoromethyl)-hydroxy-methyl]-4,5-dihydro-1H-pyrazole]
34	636	Cc1ccccc1-c1ccc(C2CC(C(O)(C(F)(F)F)C(F)(F)F)=NN2c2ccc(F)cc2F)cc1 (centres unmarked) [Example 371, 1-(2,4-difluoro-phenyl)-5-(2′-methyl-biphenyl-4-yl)-3-[di-(trifluoromethyl)-hydroxy-methyl]-4,5-dihydro-1H-pyrazole]
15	890	OC(C1=NN(c2ccc(F)cc2F)C(c2ccc(-c3ccc(C(F)(F)F)nc3)cc2)C1)(C(F)(F)F)C(F)(F)F (centres unmarked) [Example 377, 1-(2,4-difluoro-phenyl)-5-[4-(6-trifluoromethyl-pyridin-3-yl)-phenyl]-3-[di-(trifluoromethyl)-hydroxy-methyl]-4,5-dihydro-1H-pyrazole]
62	461	CN(C)S(=O)(=O)N1CCCN(c2ccc(C3CC(C(O)(C(F)(F)F)C(F)(F)F)=NN3c3ccc(F)cc3F)cc2)CC1 (centres unmarked) [Example 411, 1-(2,4-difluoro-phenyl)-5-[4-(4-dimethylsulfamoyl-homopiperazin-1-yl)-phenyl]-3-[di-(trifluoromethyl)-hydroxy-methyl]-4,5-dihydro-1H-pyrazole]
46	94	Cc1cc(F)ncc1-c1ccc(C2CC(C(O)(C(F)(F)F)C(F)(F)F)=NN2c2ccc(F)cc2F)cc1 (centres unmarked) [Example 384, 1-(2,4-difluoro-phenyl)-5-[4-(6-fluoro-4-methyl-pyridin-3-yl)-phenyl]-3-[di-(trifluoromethyl)-hydroxy-methyl]-4,5-dihydro-1H-pyrazole]
13	6600	CC(C)(C)OC(=O)N1CC=C(c2cccc(N3N=C(C(O)(C(F)(F)F)C(F)(F)F)CC3c3ccccc3Cl)c2)CC1 (centres unmarked) [Example 433, 5-(2-chloro-phenyl)-1-[3-(1-BOC-1,2,3,6-tetrahydropyridin-4-yl)-phenyl]-3-[di-(trifluoromethyl)-hydroxy-methyl]-4,5-dihydro-1H-pyrazole]
